Data taken from EP4741401A1, “BENZOTHIAZOIMIDAZOLYL COMPOUND AND USE THEREOF” (ER Stress Research Institute, Inc., priority 2023, dated 2025).
pIC50: −log10 of the molar value.

What was measured:
293A cells = assay: Cytoprotection under endoplasmic reticulum stress conditions (Tm-induced cell death); assay type: cell-based; settings: compound concentration inhibiting Tm-induced cell death by 50%, Tm 0.2 µg/mL, reporter cells
Method: The reporter cells same as those used in Example 1 were placed in each well of a 96-well assay plate and were treated with Tm at a final concentration of 0.2 µg/mL and the test compound. […]

[1] = test system: endoplasmic reticulum stress response induced by Tm; assay: Suppression of endoplasmic reticulum stress response (ERSE2-UPRE-AARE-EGFP reporter fluorescence); assay type: cell-based; settings: 293A reporter cells, incubated at 37°C overnight, read-out: Suppression rank of endoplasmic reticulum stress response
Method: A solution of the compound synthesized in "(1) Synthesis of benzothiazoimidazolyl compound" was appropriately diluted with a DMEM solution containing 10% fetal bovine serum (FBS), and the diluted solution was added to a 384-well assay plate at 10 µL/well. Next, 30 µL of a culture medium containing the reporter cells and 10 µL of the Tm solution were mixed, and the mixture was added to the 384-well assay plate at 40 µL/well such that the cell density was 18 × 10^3 cells/well, and the whole was incubated at 37°C overnight.
A multi-plate reader Citation 3 (Bio-Tek) was used to determine the EGFP fluorescence intensity (excitation wavelength: 485 nm, fluorescence wavelength: 528 nm) when the test compound was added. A smaller fluorescence intensity indicates more suppression of the increase in activity of the endoplasmic reticulum stress marker induced by Tm.
A "control" containing the Tm solution and, in place of the test compound solution, an equal volume of DMSO was subjected to the measurement of fluorescence intensity in a similar manner. In addition, a "background" containing a solution prepared in the same manner as for the Tm solution except that no Tm was added and containing, in place of the test compound solution, an equal volume of DMSO was subjected to the measurement of fluorescence intensity in a similar manner.
The fluorescence intensity was determined while the concentration of the test compound was varied, and the 50% effective concentration (IC50) of suppressing the endoplasmic reticulum stress response induced by Tm was calculated.

SMILES | pIC50 [1] | pIC50 (293A cells)
CNC(=O)CCc1ccc2c(c1)sc1nc(-c3ccc(Cl)cc3)cn12 [IBT-35, 3-(2-(4-chlorophenyl)benzo[d]imidazo[2,1-b]thiazol-7-yl)-N-methylpropanamide] | 7.00 to 8.00 | 7.40
CNC(=O)CCc1ccc2c(c1)sc1nc(-c3ccc(C(F)(F)F)cc3)cn12 [IBT-37, N-methyl-3-(2-(4-(trifluoromethyl)phenyl)benzo[d]imidazo[2,1-b]thiazol-7-yl)propanamide] | 7.00 to 8.00 | 7.52
CNC(=O)CCCS(=O)(=O)c1ccc2c(c1)sc1nc(-c3ccc(C(F)(F)F)cc3)cn12 [IBT-38, N-methyl-4-((2-(4-(trifluoromethyl)phenyl)benzo[d]imidazo[2,1-b]thiazol-7-yl)sulfonyl)butanamide] | 7.00 to 8.00 | 7.05
CCN(CC)C(=O)CCc1ccc2c(c1)sc1nc(-c3ccc(C(F)(F)F)cc3)cn12 [IBT-39, N,N-diethyl-3-(2-(4-(trifluoromethyl)phenyl)benzo[d]imidazo[2,1-b]thiazol-7-yl)propanamide] | 7.00 to 8.00 | 7.10
FC(F)(F)c1ccc(-c2cn3c(n2)sc2ccccc23)cc1 [IBT-40, 2-(4-(trifluoromethyl)phenyl)benzo[d]imidazo[2,1-b]thiazole] | 7.00 to 8.00 | 7.00
COc1cccc2sc3nc(-c4ccc(Cl)cc4)cn3c12 [IBT-51, 2-(4-chlorophenyl)-5-methoxybenzo[d]imidazo[2,1-b]thiazole] | < 6.00 | 5.11
CNC(=O)CCCNS(=O)(=O)c1ccc2c(c1)sc1nc(-c3ccc(C(F)(F)F)cc3)cn12 [IBT-52, N-methyl-4-((2-(4-(trifluoromethyl)phenyl)benzo[d]imidazo[2,1-b]thiazole)-7-sulfonamido)butanamide] | 6.00 to 7.00 | 6.38
CC(C)(C)OC(=O)NCCOCCNC(=O)CCc1ccc2c(c1)sc1nc(-c3ccc(C(F)(F)F)cc3)cn12 [IBT-53, tert-butyl (2-(2-(3-(2-(4-(trifluoromethyl)phenyl)benzo[d]imidazo[2,1-b]thiazol-7-yl)propanamido)ethoxy)ethyl)carbamate] | < 6.00 | 5.35
CCN(CC)C(=O)CCCS(=O)(=O)c1ccc2c(c1)sc1nc(-c3ccc(C(F)(F)F)cc3)cn12 [IBT-55, N,N-diethyl-4-((2-(4-(trifluoromethyl)phenyl)benzo[d]imidazo[2,1-b]thiazol-7-yl)sulfonyl)butanamide] | 6.00 to 7.00 | 6.18
C#CCNC(=O)CCc1ccc2c(c1)sc1nc(-c3ccc(C(F)(F)F)cc3)cn12 [IBT-57] | < 6.00 | 5.42
CC(C)(C)OC(=O)NCCCOc1cc(-c2cn3c(n2)sc2cc(S(C)(=O)=O)ccc23)ccc1Cl [IBT-58, tert-butyl (3-(2-chloro-5-(7-(methylsulfonyl)benzo[d]imidazo[2,1-b]thiazol-2-yl)phenoxy)propyl)carbamate] | < 6.00 | 5.49
OCc1ccc2c(c1)sc1nc(-c3ccc(Cl)cc3)cn12 [IBT-59, (2-(4-chlorophenyl)benzo[d]imidazo[2,1-b]thiazol-7-yl)methanol] | 6.00 to 7.00 | 6.39
C#CCOCc1ccc2c(c1)sc1nc(-c3ccc(Cl)cc3)cn12 [IBT-60, 2-(4-chlorophenyl)-7-((prop-2-yn-1-yloxy)methyl)benzo[d]imidazo[2,1-b]thiazole 2,2,2-trifluoroacetate] | 6.00 to 7.00 | 6.05
C#CCCC1(CCNC(=O)CCc2ccc3c(c2)sc2nc(-c4ccc(C(F)(F)F)cc4)cn23)N=N1 [IBT-61, N-(2-(3-(but-3-yn-1-yl)-3H-diazirin-3-yl)ethyl)-3-(2-(4-(trifluoromethyl)phenyl)benzo[d]imidazo[2,1-b]thiazol-7-yl)propanamide] | < 6.00 | 5.38
C#CCCC1(CCOc2cc(-c3cn4c(n3)sc3cc(S(C)(=O)=O)ccc34)ccc2Cl)N=N1 [IBT-63, 2-(3-(2-(3-(but-3-yn-1-yl)-3H-diazirin-3-yl)ethoxy)-4-chlorophenyl)-7-(methylsulfonyl)benzo[d]imidazo[2,1-b]thiazole 2,2,2-trifluoroacetate] | 6.00 to 7.00 | 6.46
Cc1ccc2c(c1)sc1nc(-c3ccc(C(F)(F)F)cc3)cn12 [IBT-68, 7-methyl-2-(4-(trifluoromethyl)phenyl)benzo[d]imidazo[2,1-b]thiazole] | 7.00 to 8.00 | 7.00
C#CCCC1(CCOc2cccc(-c3cn4c(n3)sc3cc(S(C)(=O)=O)ccc34)c2)N=N1 [IBT-70, 2-(3-(2-(3-(but-3-yn-1-yl)-3H-diazirin-3-yl)ethoxy)phenyl)-7-(methylsulfonyl)benzo[d]imidazo[2,1-b]thiazole 2,2,2-trifluoroacetate] | 6.00 to 7.00 | 6.37
FC(F)(F)c1ccc(-c2cn3c(n2)sc2c(Br)cccc23)cc1 [IBT-72, 8-bromo-2-(4-(trifluoromethyl)phenyl)benzo[d]imidazo[2,1-b]thiazole] | 6.00 to 7.00 | 6.20
C#CCCC1(CCNC(=O)CCc2cccc3c2sc2nc(-c4ccc(C(F)(F)F)cc4)cn23)N=N1 [IBT-73, N-(2-(3-(but-3-yn-1-yl)-3H-diazirin-3-yl)ethyl)-3-(2-(4-(trifluoromethyl)phenyl)benzo[d]imidazo[2,1-b]thiazol-8-yl)propanamide 2,2,2-trifluoroacetate] | < 6.00 | 5.08

Now from value to molecule, other results behind:

pIC50 [1] | SMILES | pIC50 (293A cells)
≥ 8.00 | CS(=O)(=O)c1ccc2c(c1)sc1nc(-c3ccc(C(F)(F)F)cc3)cn12 [IBT-31, 7-(methylsulfonyl)-2-(4-(trifluoromethyl)phenyl)benzo[d]imidazo[2,1-b]thiazole] | 8.00
7.00 to 8.00 | CS(=O)(=O)c1ccc2c(c1)sc1nc(-c3ccc(Cl)c(Cl)c3)cn12 [IBT-32, 2-(3,4-dichlorophenyl)-7-(methylsulfonyl)benzo[d]imidazo[2,1-b]thiazole] | 7.70
7.00 to 8.00 | COc1cccc(-c2cn3c(n2)sc2cc(S(C)(=O)=O)ccc23)c1 [IBT-33, 2-(3-methoxyphenyl)-7-(methylsulfonyl)benzo[d]imidazo[2,1-b]thiazole] | 7.15
7.00 to 8.00 | CS(=O)(=O)c1ccc2c(c1)sc1nc(-c3ccc(F)cc3)cn12 [IBT-34, 2-(4-fluorophenyl)-7-(methylsulfonyl)benzo[d]imidazo[2,1-b]thiazole] | 7.10
≥ 8.00 | COc1cc(-c2cn3c(n2)sc2cc(S(C)(=O)=O)ccc23)ccc1Cl [IBT-36, 2-(4-chloro-3-methoxyphenyl)-7-(methylsulfonyl)benzo[d]imidazo[2,1-b]thiazole] | 8.00
7.00 to 8.00 | C#CCOc1ccc(-c2cn3c(n2)sc2cc(S(C)(=O)=O)ccc23)cc1 [IBT-41, 7-(methylsulfonyl)-2-(4-(prop-2-yn-1-yloxy)phenyl)benzo[d]imidazo[2,1-b]thiazole 2,2,2-trifluoroacetate] | 7.05
6.00 to 7.00 | COc1ccc(-c2cn3c(n2)sc2cc(S(C)(=O)=O)ccc23)cc1 [IBT-43, 2-(4-methoxyphenyl)-7-(methylsulfonyl)benzo[d]imidazo[2,1-b] thiazole] | 6.77
6.00 to 7.00 | CS(=O)(=O)c1ccc2c(c1)sc1nc(-c3ccc(Cl)cc3Cl)cn12 [IBT-44, 2-(2,4-dichlorophenyl)-7-(methylsulfonyl)benzo[d]imidazo[2,1-b]thiazole] | 6.35
6.00 to 7.00 | CCOC(=O)c1ccc2c(c1)sc1nc(-c3ccc(Cl)cc3)cn12 [IBT-45, ethyl 2-(4-chlorophenyl)benzo[d]imidazo[2,1-b]thiazole-7-carboxylate] | 6.46
6.00 to 7.00 | CCOc1ccc2c(c1)sc1nc(-c3ccc(Cl)cc3)cn12 [IBT-46, 2-(4-chlorophenyl)-7-ethoxybenzo[d]imidazo[2,1-b]thiazole] | 6.25
6.00 to 7.00 | C#CCOc1cc(-c2cn3c(n2)sc2cc(S(C)(=O)=O)ccc23)ccc1Cl [IBT-56, 2-(4-chloro-3-(prop-2-yn-1-yloxy)phenyl)-7-(methylsulfonyl)benzo[d]imidazo[2,1-b]thiazole] | 6.25
6.00 to 7.00 | CCOc1ccc(-c2cn3c(n2)sc2cc(S(C)(=O)=O)ccc23)cc1 [IBT-64, 2-(4-ethoxyphenyl)-7-(methylsulfonyl)benzo[d]imidazo[2,1-b]thiazole] | 6.17
6.00 to 7.00 | CC(C)(C)OC(=O)NCCCOc1ccc(-c2cn3c(n2)sc2cc(S(C)(=O)=O)ccc23)cc1 [IBT-66, tert-butyl (3-(4-(7-(methylsulfonyl)benzo[d]imidazo[2,1-b]thiazol-2-yl)phenoxy)propyl)carbamate] | 6.08
6.00 to 7.00 | CCCc1ccc(-c2cn3c(n2)sc2cc(S(C)(=O)=O)ccc23)cc1 [IBT-67, 7-(methylsulfonyl)-2-(4-propylphenyl)benzo[d]imidazo[2,1-b]thiazole] | 6.43
